Test results as given in patent US7148380B2, “Bio-energy muscle relaxants” (priority 2000, dated 2006).

Experiments:
[1] = system: hypertension induced by aramine; test: Aramine-induced hypertension, curative test; format: in vivo, SD rats
Procedure: Eighteen (18) SD rats (provided by the Center of Experimental Animals, First Military Medical University, Guang Zhou, China, Certificate No. 99A046) with body weight of 200–250 g were used for the study. The animal was anesthetized with urethane (1.4 g/kg, I.P.), then the main cervical artery was exposed and cannulated, blood pressure was monitored during the experiment. After a 30-minute stabilization period after the operation, normal blood pressure curves were recorded.

[2] = system: contraction of bronchial smooth muscle induced by histamine; test: By-pass-airflow pressure, bronchial smooth muscle contraction induced by histamine; format: in vivo, guinea pig
Procedure: The animals were divided as saline, BDM, and aminophylline groups. Each animal was anesthetized with pentobarbital (30 mg/kg, I.P.), the trachea was intubated and connected to respirator. Tidal volume and frequency of the respirator were adjusted to 6˜10 ml and 60˜70 breath/min. respectively.
A small hole on chest wall of the animal was made, resulting in pneumothorax to inhibit spontaneous respiration of the animal. A modified device was used for measuring by-pass-airflow pressure of the airway, reflecting alteration in airway resistance, therefore evaluating status of bronchial smooth muscle contraction induced by histamine. The by-pass-airflow pressures were measured before and at 10, 20, 30, 40, 50, and 60 min after administration of histamine (5˜10 μg, I.P.) as control values. […] Changes in by-pass-airflow pressure caused by histamine before and after saline, BDM, or aminophylline were compared.
A percentage of changes in the airflow pressures before and after administration of the histamine at different time points, defined as the change rate, was calculated according to formula 1 below: Change rate (%)=(PA−PB)/PB×100% (1)
where PA is the airflow pressure after histamine, PB is the pressure before histamine. Values were expressed as mean±SD, paired or group “t” test was used upon the requirement for the statistical analysis. The results were considered significant when p<0.05.

[3] = BDM 0.2 M, 10 ml/kg, I.P. after aramine
[4] = control fluctuating within ±15 mmHg
[5] = after drug 10 ml/kg I.P., 10 min after histamine
[6] = after drug 10 ml/kg I.P., 20 min after histamine
[7] = after drug 10 ml/kg I.P., 30 min after histamine
[8] = after drug 10 ml/kg I.P., 40 min after histamine
[9] = after drug 10 ml/kg I.P., 50 min after histamine
[10] = after drug 10 ml/kg I.P., 60 min after histamine
[11] = before drug administration, 10 min after histamine
[12] = before drug administration, 20 min after histamine
[13] = before drug administration, 30 min after histamine
[14] = before drug administration, 40 min after histamine
[15] = before drug administration, 50 min after histamine
[16] = before drug administration, 60 min after histamine

CC(=O)C(C)=NO [BDM, 2,3-butanedione monoxime]
Diastolic pressure 2 min. after BDM administration [1, 3]: 73.8 ± 4.9^★★ mmHg
Diastolic pressure 5 min. after BDM administration [1, 3]: 77.0 ± 9.1^★★ mmHg
Diastolic pressure 10 min. after BDM administration [1, 3]: 76.3 ± 5.2^★★ mmHg
Systolic pressure 2 min. after BDM administration [1, 3]: 123.7 ± 6.0^★★ mmHg
Systolic pressure 5 min. after BDM administration [1, 3]: 128.3 ± 5.2^★★ mmHg
Systolic pressure 10 min. after BDM administration [1, 3]: 130.5 ± 4.2^★★ mmHg
Diastolic pressure, Blood Pressure before ([1]; baseline, mean±SD, n=6–7): 74.0 ± 15.4 mmHg
Systolic pressure, Blood Pressure before ([1]; baseline, mean±SD, n=6–7): 123.3 ± 10.1 mmHg
Diastolic pressure 2 min. after aramin administration ([1]; before BDM): 121.5 ± 5.5 mmHg
Diastolic pressure 5 min. after aramin administration ([1]; before BDM): 122.2 ± 5.1 mmHg
Diastolic pressure 10 min. after aramin administration ([1]; before BDM): 117.7 ± 9.5 mmHg
Systolic pressure 2 min. after aramin administration ([1]; before BDM): 182.7 ± 6.0 mmHg
Systolic pressure 5 min. after aramin administration ([1]; before BDM): 183.5 ± 5.5 mmHg
Systolic pressure 10 min. after aramin administration ([1]; before BDM): 181.8 ± 6.4 mmHg
Average decrease of diastolic blood pressure after BDM administration [1, 4]: 42 mmHg
Average decrease of systolic blood pressure after BDM administration [1, 4]: 54 mmHg
by-pass-airflow pressure, A, B. Hist ([2]; after drug 10 ml/kg I.P. (BDM 0.2M, aminophylline 1.25%), before histamine): 3.86 ± 0.23 Kpa
by-pass-airflow pressure, A, Hist 10 min. [2, 5]: 3.42 ± 0.21 Kpa
changing rate of by-pass-airflow pressure, A, Hist 10 min. [2, 5]: −11.37%
by-pass-airflow pressure, A, Hist 20 min. [2, 6]: 3.54 ± 0.21 Kpa
changing rate of by-pass-airflow pressure, A, Hist 20 min. [2, 6]: −8.22%
by-pass-airflow pressure, A, Hist 30 min. [2, 7]: 3.56 ± 0.27 Kpa
changing rate of by-pass-airflow pressure, A, Hist 30 min. [2, 7]: −7.80%
by-pass-airflow pressure, A, Hist 40 min. [2, 8]: 3.60 ± 0.28 Kpa
changing rate of by-pass-airflow pressure, A, Hist 40 min. [2, 8]: −6.77%
by-pass-airflow pressure, A, Hist 50 min. [2, 9]: 3.62 ± 0.29 Kpa
changing rate of by-pass-airflow pressure, A, Hist 50 min. [2, 9]: −6.25%
by-pass-airflow pressure, A, Hist 60 min. [2, 10]: 3.66 ± 0.26 Kpa
changing rate of by-pass-airflow pressure, A, Hist 60 min. [2, 10]: −5.11%
histamine-induced increase in the airflow pressure ([2]; at 10, 20, 30, 40, and 50 min after administration, p<0.01 or p<0.05): significantly reduce
by-pass-airflow pressure, B, Hist 10 min. [2, 11]: 3.67 ± 0.16 Kpa
changing rate of by-pass-airflow pressure, B, Hist 10 min. [2, 11]: 2.13%
by-pass-airflow pressure, B, Hist 20 min. [2, 12]: 3.76 ± 0.32 Kpa
changing rate of by-pass-airflow pressure, B, Hist 20 min. [2, 12]: 4.49%
by-pass-airflow pressure, B, Hist 30 min. [2, 13]: 3.72 ± 0.21 Kpa
changing rate of by-pass-airflow pressure, B, Hist 30 min. [2, 13]: 3.52%
by-pass-airflow pressure, B, Hist 40 min. [2, 14]: 3.72 ± 0.18 Kpa
changing rate of by-pass-airflow pressure, B, Hist 40 min. [2, 14]: 3.56%
by-pass-airflow pressure, B, Hist 50 min. [2, 15]: 3.67 ± 0.23 Kpa
changing rate of by-pass-airflow pressure, B, Hist 50 min. [2, 15]: 2.06%
by-pass-airflow pressure, B, Hist 60 min. [2, 16]: 3.68 ± 0.11 Kpa
changing rate of by-pass-airflow pressure, B, Hist 60 min. [2, 16]: 2.54%
by-pass-airflow pressure, B, B. Hist ([2]; before drug administration, before histamine): 3.60 ± 0.26 Kpa
changing rate of by-pass-airflow pressure, D, Hist 10 min. ([2]; difference A minus B, 10 min after histamine): −13.50%
changing rate of by-pass-airflow pressure, D, Hist 20 min. ([2]; difference A minus B, 20 min after histamine): −12.72%
changing rate of by-pass-airflow pressure, D, Hist 30 min. ([2]; difference A minus B, 30 min after histamine): −11.33%
changing rate of by-pass-airflow pressure, D, Hist 40 min. ([2]; difference A minus B, 40 min after histamine): −10.34%
changing rate of by-pass-airflow pressure, D, Hist 50 min. ([2]; difference A minus B, 50 min after histamine): −8.31%
changing rate of by-pass-airflow pressure, D, Hist 60 min. ([2]; difference A minus B, 60 min after histamine): −7.65%
